Results taken from patent publication US20210122757A1, “SPIROCYCLIC COMPOUNDS AS MODULATORS OF INDOLEAMINE 2,3-DIOXYGENASE” (PHENEX DISCOVERY VERWALTUNGS-GMBH, priority 2018, published 2021).

Target: T1, Indoleamine 2,3-dioxygenase (Homo sapiens, UniProt P14902)
T1 construct: endogenous in cells; host or cells: SKOV-3 (ATCC HTB-77), stimulated with 50 ng/ml interferon gamma
Experiment: SKOV-3 Cellular Indoleamine 2,3-dioxygenase Assay
Details: SKOV-3 cells, 50 ng/ml Interferon gamma, 100 μM L-Tryptophan, 24 hours, N-Formylkynurenin fluorescence detection; read-out: cell based activity (IC50)
Procedure: SKOV-3 Cellular Indoleamine 2,3-dioxygenase Assay
SKOV-3 cells were obtained from the American Type Culture Collection (ATCC® HTB-77™) and maintained in McCoy's medium (Pan Biotech) supplemented with 10% fetal bovine serum and 1% Penicillin/Streptomycin. Cells were kept at 37° C. in a humidified incubator with 5% CO2. For assay preparation, cells were seeded at a density of 2*10^5/ml into black clear bottom 96 well plates in 100 μl medium/well supplemented with 50 ng/ml Interferon gamma (eBioscience, Thermo Fisher Scientific). After cells fully adhered to the plate, dilution series of compounds were added in medium containing additional L-Tryptophan to a final L-Tryptophan concentration of 100 μM. The cells were incubated for 24 hours. Detection of produced N-Formylkynurenin was performed by addition of 3-Methylpiperidine to a final concentration of 200 mM. The plates were sealed and heated to 65° C. for 20 minutes in a water bath. After cooling the fluorescence of each well was recorded with a Victor™X4 (PerkinElmer) plate reader at an emission wavelength of 535 nm and excitation at 405 nm (Tomek et al.; Anal Bioanal Chem (2013) 405:2515-2524, Tomek et al.; Biochim Biophys Acta. 2015 September; 1850(9):1772-80).

T1 sequence (P14902 whole entry): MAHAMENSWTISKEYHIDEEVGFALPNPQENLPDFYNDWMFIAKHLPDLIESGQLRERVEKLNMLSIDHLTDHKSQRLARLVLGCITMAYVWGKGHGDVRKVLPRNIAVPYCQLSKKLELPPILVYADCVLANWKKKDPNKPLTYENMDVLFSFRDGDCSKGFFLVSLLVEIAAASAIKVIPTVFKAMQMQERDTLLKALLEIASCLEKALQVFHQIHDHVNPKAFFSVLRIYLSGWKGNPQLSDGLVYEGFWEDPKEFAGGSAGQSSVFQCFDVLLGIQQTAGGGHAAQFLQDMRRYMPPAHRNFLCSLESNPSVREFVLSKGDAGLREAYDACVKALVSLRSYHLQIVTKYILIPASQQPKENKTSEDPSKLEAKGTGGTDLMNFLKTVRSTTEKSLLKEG

SMILES	IC50 [nM]
Cc1ccc(NC(=O)C(C)C2CCC3(CC2)COc2cc(C(F)(F)F)ccc23)cc1 (single isomer, unassigned) [Example 8e, N-(p-Tolyl)-2-(6-(trifluoromethyl)-2H-spiro[benzofuran-3,1′-cyclohexan]-4′-yl)propanamide]	≥ 50
CC1CCC(NC(=O)C(C)C2CCC3(CC2)COc2cc(C(F)(F)F)ccc23)CC1 (single isomer, unassigned) [Example 9b, N-((1r,4r)-4-Methylcyclohexyl)-2-(6-(trifluoromethyl)-2H-spiro[benzofuran-3,1′-cyclohexan]-4′-yl)propanamide]	≥ 50
CC1CCC(NC(=O)C(C)C2CCC3(CC2)COc2cc(C(F)(F)F)ccc23)CC1 (single isomer, unassigned) [Example 9c, N-((1r,4r)-4-Methylcyclohexyl)-2-(6-(trifluoromethyl)-2H-spiro[benzofuran-3,1′-cyclohexan]-4′-yl)propanamide]	≥ 50
CC1CCC(NC(=O)C(C)C2CCC3(CC2)COc2cc(C(F)(F)F)ccc23)CC1 (single isomer, unassigned) [Example 9d, N-((1r,4r)-4-Methylcyclohexyl)-2-(6-(trifluoromethyl)-2H-spiro[benzofuran-3,1′-cyclohexan]-4′-yl)propanamide]	≥ 50
CC1CCC(NC(=O)C(C)C2CCC3(CC2)COc2cc(C(F)(F)F)ccc23)CC1 (single isomer, unassigned) [Example 9e, N-((1r,4r)-4-Methylcyclohexyl)-2-(6-(trifluoromethyl)-2H-spiro[benzofuran-3,1′-cyclohexan]-4′-yl)propanamide]	< 50
C[C@H](C(=O)Nc1ccc(Cl)cc1)[C@H]1CC[C@@]2(CC1)COc1cc(C(F)(F)F)ccc12 [Example 3b, (S)—N-(4-Chlorophenyl)-2-((3S,4′r)-6-(trifluoromethyl)-2H-spiro[benzofuran-3,1′-cyclohexan]-4′-yl)propanamide]	< 50
C[C@@H](C(=O)Nc1ccc(Cl)cc1)[C@H]1CC[C@@]2(CC1)COc1cc(C(F)(F)F)ccc12 [Example 3c, (R)—N-(4-Chlorophenyl)-2-((3R,4′r)-6-(trifluoromethyl)-2H-spiro[benzofuran-3,1′-cyclohexan]-4′-yl)propanamide]	< 50
C[C@H](C(=O)Nc1ccc(Cl)cc1)[C@H]1CC[C@]2(CC1)COc1cc(C(F)(F)F)ccc12 [Example 3d, (S)—N-(4-Chlorophenyl)-2-((3R,4′s)-6-(trifluoromethyl)-2H-spiro[benzofuran-3,1′-cyclohexan]-4′-yl)propanamide]	< 50
C[C@@H](C(=O)Nc1ccc(Cl)cc1)[C@H]1CC[C@]2(CC1)COc1cc(C(F)(F)F)ccc12 [Example 3e, (R)—N-(4-chlorophenyl)-2-((3S,4′s)-6-(trifluoromethyl)-2H-spiro[benzofuran-3,1′-cyclohexan]-4′-yl)propanamide]	≥ 50
C[C@H](C(=O)Nc1ccc(Cl)cc1)[C@H]1CC[C@]2(CC1)COc1cc(C(F)F)ccc12 [Example 13, (S)—N-(4-chlorophenyl)-2-((3R,4′s)-6-(difluoromethyl)-2H-spiro[benzofuran-3,1′-cyclohexan]-4′-yl)propanamide]	< 50

The remaining lines, values ahead:

IC50 [nM]	SMILES
< 50	CCC(C(=O)Nc1ccc(Cl)cn1)C1CCC2(CC1)COc1cc(C(F)(F)F)ccc12 (single isomer, unassigned) [Example 10b, N-(5-chloropyridin-2-yl)-2-(6-(trifluoromethyl)-2H-spiro[benzofuran-3,1′-cyclohexan]-4′-yl)butanamide]
< 50	CCC(C(=O)Nc1ccc(Cl)cn1)C1CCC2(CC1)COc1cc(C(F)(F)F)ccc12 (single isomer, unassigned) [Example 10c, N-(5-chloropyridin-2-yl)-2-(6-(trifluoromethyl)-2H-spiro[benzofuran-3,1′-cyclohexan]-4′-yl)butanamide]
< 50	CCC(C(=O)Nc1ccc(Cl)cn1)C1CCC2(CC1)COc1cc(C(F)(F)F)ccc12 (single isomer, unassigned) [Example 10d, N-(5-chloropyridin-2-yl)-2-(6-(trifluoromethyl)-2H-spiro[benzofuran-3,1′-cyclohexan]-4′-yl)butanamide]
≥ 50	CCC(C(=O)Nc1ccc(Cl)cn1)C1CCC2(CC1)COc1cc(C(F)(F)F)ccc12 (single isomer, unassigned) [Example 10e, N-(5-chloropyridin-2-yl)-2-(6-(trifluoromethyl)-2H-spiro[benzofuran-3,1′-cyclohexan]-4′-yl)butanamide]
≥ 50	CC(c1nc2cc(Cl)ccc2[nH]1)C1CCC2(CC1)COc1cc(C(F)(F)F)ccc12 (single isomer, unassigned) [Example 11b, 5-Chloro-2-(1-(6-(trifluoromethyl)-2H-spiro[benzofuran-3,1′-cyclohexan]-4′-yl)ethyl)-1H-benzo[d]imidazole]
< 50	CC(c1nc2cc(Cl)ccc2[nH]1)C1CCC2(CC1)COc1cc(C(F)(F)F)ccc12 (single isomer, unassigned) [Example 11c, 5-Chloro-2-(1-(6-(trifluoromethyl)-2H-spiro[benzofuran-3,1′-cyclohexan]-4′-yl)ethyl)-1H-benzo[d]imidazole]
< 50	CC(c1nc2cc(Cl)ccc2[nH]1)C1CCC2(CC1)COc1cc(C(F)(F)F)ccc12 (single isomer, unassigned) [Example 11d, 5-Chloro-2-(1-(6-(trifluoromethyl)-2H-spiro[benzofuran-3,1′-cyclohexan]-4′-yl)ethyl)-1H-benzo[d]imidazole]
< 50	CC(c1nc2cc(Cl)ccc2[nH]1)C1CCC2(CC1)COc1cc(C(F)(F)F)ccc12 (single isomer, unassigned) [Example 11e, 5-Chloro-2-(1-(6-(trifluoromethyl)-2H-spiro[benzofuran-3,1′-cyclohexan]-4′-yl)ethyl)-1H-benzo[d]imidazole]
≥ 50	CC(C(=O)NC1Cc2ccc(F)cc21)C1CCC2(CC1)COc1cc(C(F)(F)F)ccc12 (single isomer, unassigned) [Example 12a]
≥ 50	CC(C(=O)NC1Cc2ccc(F)cc21)C1CCC2(CC1)COc1cc(C(F)(F)F)ccc12 (single isomer, unassigned) [Example 12b]
< 50	O=C(C[C@H]1CC[C@@]2(CC1)COc1cc(C(F)(F)F)ccc12)Nc1ccc(Cl)cc1F (single isomer, unassigned) [Example 14a, N-(4-chloro-2-fluorophenyl)-2-(6-(trifluoromethyl)-2H-spiro[benzofuran-3,1′-cyclohexan]-4′-yl)acetamide]
≥ 50	O=C(C[C@H]1CC[C@@]2(CC1)COc1cc(C(F)(F)F)ccc12)Nc1ccc(Cl)cc1F (single isomer, unassigned) [Example 14b, N-(4-chloro-2-fluorophenyl)-2-(6-(trifluoromethyl)-2H-spiro[benzofuran-3,1′-cyclohexan]-4′-yl)acetamide]
